{
  "source": "paper PMC7203957",
  "about": "(ACS Omega, 2020)",
  "key": {"GyrB (1–220)": {"target": "GyrB (1–220) (Escherichia coli, UniProt P0AES6)", "experiment": "Isothermal titration calorimetry", "type": "binding, E. coli", "conditions": "for exothermic / thermodynamic signal in ITC: fragment screening, result in words"}, "[1]": {"experiment": "Solubility test for ITC measurement", "type": "physicochemical", "conditions": "DMSO (40–200 mM) and assay (ITC) buffer"}, "E. coli ATCC 25922": {"tested_on": "E. coli ATCC 25922", "experiment": "Minimum inhibitory concentration", "type": "cell-based", "conditions": "without efflux pump inhibitor"}, "S. aureus ATCC 29213": {"tested_on": "S. aureus ATCC 29213", "experiment": "Minimum inhibitory concentration", "type": "cell-based"}, "HepG2 cytotoxicity": {"experiment": "HepG2 cytotoxicity", "type": "cell-based", "conditions": "human, HepG2 (ATCC HB-8065) cells"}},
  "note": "Several values for one entry are separate records, joined by “and”; a condition that tells them apart may be missing. Identical values can stand only once.",
  "data": [
    {"compound": "CNc1cccc2ccc(=O)[nH]c12", "note": "[Compound 2d, 8-(Methylamino)quinolin-2(1H)-one]", "values": [
      {"measurement": "ITC ΔH", "setting": "GyrB (1–220); Table 2 fragments", "result": "−6.14 kcal/mol and -6.14^b kcal/mol"}
    ]},
    {"compound": "CCNc1cccc2ccc(=O)[nH]c12", "note": "[Compound 2q, 8-(ethylamino) quinolin-2(1H)-one]", "values": [
      {"measurement": "exothermic / thermodynamic signal in ITC", "setting": "GyrB (1–220)", "result": "no exothermic effects"}
    ]},
    {"compound": "Nc1cccc2ccc(=O)[nH]c12", "note": "[Compound 2u, 8-aminoquinolin-2(1H)-one]", "values": [
      {"measurement": "exothermic / thermodynamic signal in ITC", "setting": "GyrB (1–220)", "result": "no exothermic effects"}
    ]},
    {"compound": "CNc1cccc2cc(C(=O)Nc3ccccc3)c(=O)[nH]c12", "note": "[Compound 13, 8-(Methylamino)-2-oxo-N-phenyl-1,2-dihydroquinoline-3-carboxamide]", "values": [
      {"measurement": "Solubility for ITC measurement", "setting": "[1]", "result": "low solubility"}
    ]},
    {"compound": "CNc1cccc2cc(C(=O)Nc3cccc(C(=O)O)c3)c(=O)[nH]c12", "note": "[Compound 13a, 3-{[8-(Methylamino)-2-oxo-1,2-dihydroquinoline-3-carbonyl]amino}benzoic Acid]", "values": [
      {"measurement": "ITC ΔH", "setting": "GyrB (1–220); Table 3", "result": -12.9, "unit": "kcal/mol"}
    ]},
    {"compound": "CNc1cccc2cc(C(=O)NCCc3cccc(C(=O)O)c3)c(=O)[nH]c12", "note": "[Compound 13c, 3-(2-{[8-(Methylamino)-2-oxo-1,2-dihydroquinoline-3-carbonyl]amino}ethyl)benzoic Acid]", "values": [
      {"measurement": "ITC ΔH", "setting": "GyrB (1–220); Table 3", "result": -13.2, "unit": "kcal/mol"},
      {"measurement": "MIC E. coli ATCC 25922", "setting": "E. coli ATCC 25922", "result": "no antibacterial activity"},
      {"measurement": "MIC S. aureus ATCC 29213", "setting": "S. aureus ATCC 29213", "result": "no antibacterial activity"}
    ]},
    {"compound": "CNc1cccc2cc(C(=O)Nc3ccc(C(=O)O)cc3)c(=O)[nH]c12", "note": "[Compound 13e, 4-{[8-(Methylamino)-2-oxo-1,2-dihydroquinoline-3-carbonyl]amino}benzoic Acid]", "values": [
      {"measurement": "ITC ΔH", "setting": "GyrB (1–220); Table 3", "result": -13.7, "unit": "kcal/mol"},
      {"measurement": "cytotoxicity at 48 h, 50 µM", "setting": "HepG2 cytotoxicity", "result": 8.4, "unit": "%"}
    ]},
    {"compound": "CNc1cccc2cc(C(=O)NCc3ccc(C(=O)O)cc3)c(=O)[nH]c12", "note": "[Compound 13f, 4-({[8-(Methylamino)-2-oxo-1,2-dihydroquinoline-3-carbonyl]amino}methyl)benzoic Acid]", "values": [
      {"measurement": "MIC E. coli ATCC 25922", "setting": "E. coli ATCC 25922", "result": "no antibacterial activity"},
      {"measurement": "MIC S. aureus ATCC 29213", "setting": "S. aureus ATCC 29213", "result": "no antibacterial activity"}
    ]}
  ]
}
